Data published in ChEMBL document CHEMBL3875146, “Mycobacterium Tuberculosis (MTB) GyrB inhibitors: An attractive approach for developing novel drugs against TB” (Eur J Med Chem, 2016).
≈ marks a conversion by molar mass, not a printed value.

Tests used:
[1] = target: DNA gyrase subunit A/DNA gyrase subunit B (Mycobacterium tuberculosis (strain ATCC 25618 / H37Rv), UniProt P9WG45+P9WG47); experiment: Inhibition of Mycobacterium tuberculosis DNA gyrase assessed as inhibition of DNA supercoiling activity using relaxed pBR322 as substrate incubated for 30 mins by ethidium bromide staining based agarose gel electrophoresis
Sequence of DNA gyrase subunit A/DNA gyrase subunit B (P9WG45 whole entry): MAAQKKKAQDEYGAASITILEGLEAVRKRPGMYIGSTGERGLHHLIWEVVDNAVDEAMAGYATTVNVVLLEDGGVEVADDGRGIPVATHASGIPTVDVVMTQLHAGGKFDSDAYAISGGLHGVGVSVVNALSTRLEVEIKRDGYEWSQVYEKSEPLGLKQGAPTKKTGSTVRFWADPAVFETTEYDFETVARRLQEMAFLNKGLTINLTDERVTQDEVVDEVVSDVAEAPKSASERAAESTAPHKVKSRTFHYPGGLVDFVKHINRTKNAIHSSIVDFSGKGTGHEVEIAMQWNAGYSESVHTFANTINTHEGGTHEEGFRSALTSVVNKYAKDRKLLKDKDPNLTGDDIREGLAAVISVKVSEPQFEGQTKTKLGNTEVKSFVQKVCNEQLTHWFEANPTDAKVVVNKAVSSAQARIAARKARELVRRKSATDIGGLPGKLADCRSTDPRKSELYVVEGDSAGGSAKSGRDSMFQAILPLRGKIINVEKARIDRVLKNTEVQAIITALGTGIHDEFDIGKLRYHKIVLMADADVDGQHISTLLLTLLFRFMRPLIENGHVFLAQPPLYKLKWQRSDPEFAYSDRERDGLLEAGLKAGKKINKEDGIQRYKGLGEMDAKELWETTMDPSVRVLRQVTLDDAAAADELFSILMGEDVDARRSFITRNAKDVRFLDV
Sequence of DNA gyrase subunit A/DNA gyrase subunit B (P9WG47 whole entry): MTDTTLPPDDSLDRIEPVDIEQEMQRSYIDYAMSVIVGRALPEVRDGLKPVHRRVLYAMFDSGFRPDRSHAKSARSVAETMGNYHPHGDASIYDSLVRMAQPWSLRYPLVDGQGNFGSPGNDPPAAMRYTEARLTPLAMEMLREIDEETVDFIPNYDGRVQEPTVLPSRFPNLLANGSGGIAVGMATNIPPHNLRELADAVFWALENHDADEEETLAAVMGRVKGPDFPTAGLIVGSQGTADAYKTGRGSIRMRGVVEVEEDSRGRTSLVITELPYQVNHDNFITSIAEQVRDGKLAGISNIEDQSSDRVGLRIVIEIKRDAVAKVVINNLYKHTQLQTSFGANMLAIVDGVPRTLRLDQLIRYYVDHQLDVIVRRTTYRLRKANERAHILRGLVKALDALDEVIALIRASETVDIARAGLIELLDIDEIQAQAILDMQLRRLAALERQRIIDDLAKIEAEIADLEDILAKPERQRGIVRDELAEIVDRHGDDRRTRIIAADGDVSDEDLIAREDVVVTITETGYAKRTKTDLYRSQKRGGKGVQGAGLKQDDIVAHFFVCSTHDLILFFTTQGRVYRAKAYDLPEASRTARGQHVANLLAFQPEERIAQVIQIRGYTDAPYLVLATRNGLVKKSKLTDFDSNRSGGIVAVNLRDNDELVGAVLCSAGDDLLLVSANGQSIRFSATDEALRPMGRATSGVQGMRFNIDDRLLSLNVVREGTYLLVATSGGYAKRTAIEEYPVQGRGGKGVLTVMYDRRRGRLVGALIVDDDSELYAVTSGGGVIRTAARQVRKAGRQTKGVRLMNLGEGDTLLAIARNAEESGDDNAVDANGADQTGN

DNA gyrase subunit B = DNA gyrase subunit B (Mycobacterium smegmatis, UniProt P0C559); experiment: Inhibition of Mycobacterium smegmatis DNA gyrase B expressed in BL21(DE3)pLysS cells assessed as inhibition of […] activity in presence of ATP measured after 30 mins by malachite green dye based assay; assay type: cell-based, Mycolicibacterium smegmatis
Sequence of DNA gyrase subunit B (P0C559 whole entry): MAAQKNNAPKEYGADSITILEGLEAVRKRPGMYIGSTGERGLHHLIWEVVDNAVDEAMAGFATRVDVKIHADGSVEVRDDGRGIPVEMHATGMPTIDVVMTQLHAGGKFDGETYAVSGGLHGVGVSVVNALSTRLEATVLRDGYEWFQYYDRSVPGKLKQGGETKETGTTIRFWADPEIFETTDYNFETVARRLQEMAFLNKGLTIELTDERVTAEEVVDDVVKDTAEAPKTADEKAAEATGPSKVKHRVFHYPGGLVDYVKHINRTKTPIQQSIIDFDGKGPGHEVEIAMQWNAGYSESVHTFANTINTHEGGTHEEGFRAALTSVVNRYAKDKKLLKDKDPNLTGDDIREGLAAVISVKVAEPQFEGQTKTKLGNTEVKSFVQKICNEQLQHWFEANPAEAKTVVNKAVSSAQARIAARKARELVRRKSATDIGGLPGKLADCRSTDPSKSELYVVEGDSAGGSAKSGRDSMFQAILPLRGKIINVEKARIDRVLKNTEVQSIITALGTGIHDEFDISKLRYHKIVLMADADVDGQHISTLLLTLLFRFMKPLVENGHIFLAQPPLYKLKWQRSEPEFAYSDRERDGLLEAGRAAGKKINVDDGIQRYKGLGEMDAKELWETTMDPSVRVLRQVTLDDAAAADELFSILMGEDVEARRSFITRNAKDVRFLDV

[2] = Cytotoxicity against mouse RAW264.7 cells assessed as inhibition of cell viability at 100 uM measured after 72 hrs by MTT assay relative to control; assay type: toxicity; settings: read-out: INH
[3] = Cytotoxicity against mouse RAW264.7 cells assessed as inhibition of cell viability at 100 uM measured after 48 hrs by MTT assay relative to control; assay type: toxicity; settings: read-out: INH
[4] = tested on: Mycobacterium tuberculosis; experiment: Antimycobacterial activity against Mycobacterium tuberculosis incubated for 7 days by alamar blue assay; assay type: functional; settings: 168 h

Row | Compound | IC50 [1] [µM] | IC50 (DNA gyrase subunit B) [µM] | cytotoxicity at 72 h, 100 µM [2] [%] | cytotoxicity at 48 h, 100 µM [3] [%] | MIC [4] [µM]
1 | O=C1C(=O)N(CCN2CCN(NCc3ccccc3C(F)(F)F)CC2)c2ccc(F)cc21 | 3.6 | 10.6 | 20.6 | – | –
2 | O=c1nc(N2CCN(C(=S)Nc3ccccc3)CC2)sc2ccc(Cl)cc12 | 10.9 | – | – | 2.35 | 11.2 (≈ 4.68 µg/mL)
3 | O=C(Nc1ccc([N+](=O)[O-])cc1)N1CCN(c2nc(=O)c3cc(Cl)ccc3s2)CC1 | 4.61 | – | – | 3.56 | 5.24 (≈ 2.34 µg/mL)
4 | O=c1nc(N2CCN(Cc3ccccc3)CC2)sc2ccc(Cl)cc12 | 17.6 | – | – | – | 33.6 (≈ 12.5 µg/mL)
5 | O=c1nc(N2CCN(C(=S)Nc3ccc(Cl)cc3)CC2)sc2ccc([N+](=O)[O-])cc12 | 0.51 | – | – | 1.81 | 4.41 (≈ 2.04 µg/mL)
6 | O=c1nc(N2CCN(C(=S)Nc3ccc(Cl)cc3)CC2)sc2ccc(Cl)cc12 | 6.86 | – | – | 25.6 | 6.92 (≈ 3.12 µg/mL)
7 | COc1ccc2c(c1)C(=O)C(=O)N2CCN1CCN(NCc2ccccc2F)CC1 | > 50 | – | 16.3 | – | –
8 | O=c1nc(N2CCN(Cc3ccc([N+](=O)[O-])cc3)CC2)sc2ccc(C(F)(F)F)cc12 | 4.55 | – | – | 14.6 | 5.19 (≈ 2.34 µg/mL)
9 | O=C1C(=O)N(CCN2CCN(NCc3ccc([N+](=O)[O-])o3)CC2)c2ccc(F)cc21 | > 50 | – | 37.8 | – | –
10 | O=C1C(=O)N(CCN2CCN(NCc3ccccc3)CC2)c2ccc(F)cc21 | > 50 | – | 29.3 | – | –
11 | O=c1nc(N2CCN(C(=S)Nc3ccc([N+](=O)[O-])cc3)CC2)sc2ccc(Cl)cc12 | 6.23 | – | – | 1.45 | 13.5 (≈ 6.25 µg/mL)
12 | O=c1nc(N2CCN(Cc3ccc([N+](=O)[O-])cc3)CC2)sc2ccc(Cl)cc12 | 7.33 | – | – | 5.48 | 15 (≈ 6.25 µg/mL)
13 | COc1ccccc1CNN1CCN(CCN2C(=O)C(=O)c3ccccc32)CC1 | > 50 | – | 21.3 | – | –
14 | O=C(Nc1ccc([N+](=O)[O-])cc1)N1CCN(c2nc(=O)c3cc(C(F)(F)F)ccc3s2)CC1 | 26.5 | – | – | – | 52.1 (≈ 25 µg/mL)
15 | O=C(Nc1ccccc1)N1CCN(c2nc(=O)c3cc([N+](=O)[O-])ccc3s2)CC1 | 16.8 | – | – | – | 30.4 (≈ 12.5 µg/mL)
16 | O=c1nc(N2CCN(Cc3ccc(Cl)cc3)CC2)sc2ccc([N+](=O)[O-])cc12 | 3.68 | – | – | 1.56 | 5.99 (≈ 2.5 µg/mL)
17 | Cc1ccc(NC(=O)N2CCN(c3nc(=O)c4cc(Cl)ccc4s3)CC2)cc1 | 2.62 | – | – | 5.14 | 6.02 (≈ 2.5 µg/mL)
18 | O=c1nc(N2CCN(Cc3ccc([N+](=O)[O-])cc3)CC2)sc2ccc([N+](=O)[O-])cc12 | 4.21 | – | – | 21.4 | 7.31 (≈ 3.12 µg/mL)
19 | O=c1nc(N2CCN(C(=S)Nc3ccc([N+](=O)[O-])cc3)CC2)sc2ccc(C(F)(F)F)cc12 | 2.16 | – | – | 5.48 | 5.04 (≈ 2.5 µg/mL)
20 | COc1ccc2c(c1)C(=O)C(=O)N2CCN1CCN(NCc2ccc([N+](=O)[O-])o2)CC1 | > 50 | – | 31.6 | – | –
21 | O=c1nc(N2CCN(C(=S)Nc3ccc([N+](=O)[O-])cc3)CC2)sc2ccc([N+](=O)[O-])cc12 | 2.59 | – | – | 2.21 | 5.29 (≈ 2.5 µg/mL)
22 | O=C(Nc1ccc(Cl)cc1)N1CCN(c2nc(=O)c3cc([N+](=O)[O-])ccc3s2)CC1 | 23.7 | – | – | – | 28 (≈ 12.5 µg/mL)
23 | O=C(Nc1ccc(Cl)cc1)N1CCN(c2nc(=O)c3cc(C(F)(F)F)ccc3s2)CC1 | 10.5 | – | – | 10.2 | 13.3 (≈ 6.25 µg/mL)
24 | COc1ccccc1CNN1CCN(CCN2C(=O)C(=O)c3cc(F)ccc32)CC1 | > 50 | – | 19.1 | – | –
25 | O=C(Nc1ccc(Cl)cc1)N1CCN(c2nc(=O)c3cc(Cl)ccc3s2)CC1 | 10.5 | – | – | 2.56 | 17.9 (≈ 7.8 µg/mL)
26 | O=C(Nc1ccccc1)N1CCN(c2nc(=O)c3cc(C(F)(F)F)ccc3s2)CC1 | 11 | – | – | – | 19.2 (≈ 8.33 µg/mL)

Row | Compound | IC50 [1] [µM] | IC50 (DNA gyrase subunit B) [µM] | cytotoxicity at 72 h, 100 µM [2] [%] | cytotoxicity at 48 h, 100 µM [3] [%] | MIC [4] [µM]
27 | O=c1nc(N2CCN(C(=S)Nc3ccc(Cl)cc3)CC2)sc2ccc(C(F)(F)F)cc12 | 4.23 | – | – | 3.15 | 8.59 (≈ 4.17 µg/mL)
28 | O=c1nc(N2CCN(Cc3ccccc3)CC2)sc2ccc(C(F)(F)F)cc12 | 11.5 | – | – | – | 15.4 (≈ 6.25 µg/mL)
29 | O=c1nc(N2CCN(Cc3ccc(Cl)cc3)CC2)sc2ccc(Cl)cc12 | 12.1 | – | – | 5.36 | 15.4 (≈ 6.25 µg/mL)
30 | O=C1C(=O)N(CCN2CCN(NCc3ccccc3)CC2)c2ccccc21 | > 50 | – | 7.6 | – | –
31 | Cc1ccc2c(c1)C(=O)C(=O)N2CCN1CCN(NCc2ccc([N+](=O)[O-])o2)CC1 | > 50 | – | 27.8 | – | –
32 | Cc1ccc(NC(=S)N2CCN(c3nc(=O)c4cc(C(F)(F)F)ccc4s3)CC2)cc1 | 4.51 | – | – | 16.4 | 9.54 (≈ 4.43 µg/mL)
33 | O=C1C(=O)N(CCN2CCN(NCc3cccc(Cl)c3Cl)CC2)c2ccc(F)cc21 | > 50 | – | 31.2 | – | –
34 | Cc1ccc(NC(=S)N2CCN(c3nc(=O)c4cc([N+](=O)[O-])ccc4s3)CC2)cc1 | 0.82 | – | – | 4.22 | 2.83 (≈ 1.25 µg/mL)
35 | Cc1ccc2c(c1)C(=O)C(=O)N2CCN1CCN(NCc2ccccc2C(F)(F)F)CC1 | > 50 | – | 13.6 | – | –
36 | Cc1ccc(NC(=O)N2CCN(c3nc(=O)c4cc([N+](=O)[O-])ccc4s3)CC2)cc1 | 9.62 | – | – | 16.2 | 14.7 (≈ 6.25 µg/mL)
37 | Cc1ccc2c(c1)C(=O)C(=O)N2CCN1CCN(NCc2ccccc2)CC1 | > 50 | – | 19.7 | – | –
38 | O=C(Nc1ccc([N+](=O)[O-])cc1)N1CCN(c2nc(=O)c3cc([N+](=O)[O-])ccc3s2)CC1 | 9.11 | – | – | 15.2 | 13.7 (≈ 6.24 µg/mL)
39 | Cc1ccc(NC(=O)N2CCN(c3nc(=O)c4cc(C(F)(F)F)ccc4s3)CC2)cc1 | 5.26 | – | – | 7.56 | 11.5 (≈ 5.18 µg/mL)
40 | Cc1ccc(CN2CCN(c3nc(=O)c4cc(Cl)ccc4s3)CC2)cc1 | 21.5 | – | – | 2.36 | 24.2 (≈ 9.36 µg/mL)
41 | O=C(Nc1ccccc1)N1CCN(c2nc(=O)c3cc(Cl)ccc3s2)CC1 | 17.5 | – | – | 16.5 | 15.6 (≈ 6.25 µg/mL)
42 | Cc1ccc(CN2CCN(c3nc(=O)c4cc(C(F)(F)F)ccc4s3)CC2)cc1 | 11.6 | – | – | 18.6 | 16.7 (≈ 7.02 µg/mL)
43 | CO[C@@H]1[C@@H](OC(N)=O)[C@@H](O)[C@H](Oc2ccc3c(O)c(NC(=O)c4ccc(O)c(CC=C(C)C)c4)c(=O)oc3c2C)OC1(C)C [NOVOBIOCIN] | – | – | – | 7.56 | > 200
44 | O=c1nc(N2CCN(C(=S)Nc3ccccc3)CC2)sc2ccc(C(F)(F)F)cc12 | 0.83 | – | – | 6.48 | 4.62 (≈ 2.08 µg/mL)
45 | O=C1C(=O)N(CCN2CCN(NCc3ccccc3F)CC2)c2ccc(Cl)cc21 | > 50 | – | 17.6 | – | –
46 | O=c1nc(N2CCN(C(=S)Nc3ccccc3)CC2)sc2ccc([N+](=O)[O-])cc12 | 0.77 | – | – | 3.25 | 1.82 (≈ 0.778 µg/mL)
47 | Cc1ccc(NC(=S)N2CCN(c3nc(=O)c4cc(Cl)ccc4s3)CC2)cc1 | 11.6 | – | – | 2.48 | 14.5 (≈ 6.25 µg/mL)
48 | Cc1ccc(CN2CCN(c3nc(=O)c4cc([N+](=O)[O-])ccc4s3)CC2)cc1 | 8.93 | – | – | 26.5 | 15.8 (≈ 6.25 µg/mL)
49 | O=c1nc(N2CCN(Cc3ccccc3)CC2)sc2ccc([N+](=O)[O-])cc12 | 3.21 | – | – | 5.41 | 4.08 (≈ 1.56 µg/mL)
50 | O=c1nc(N2CCN(Cc3ccc(Cl)cc3)CC2)sc2ccc(C(F)(F)F)cc12 | 3.86 | – | – | 8.45 | 6.31 (≈ 2.78 µg/mL)
51 | O=C1C(=O)N(CCN2CCN(NCc3ccccc3)CC2)c2ccc(Cl)cc21 | > 50 | – | 22.3 | – | –
